In patent US20170190705A1, “Compositions and Methods for Inhibiting BMP” (THE BRIGHAM AND WOMAN'S HOSPITAL, INC., priority 2014, published 2017) one finds inhibition data, which are given here for two molecules.

Common to all, as to type: biochemical
Experiment [1] concerns the target MSK2 (Homo sapiens, UniProt O75676). The experiment is described as follows: Kinome profiling MSK2. To be noted: read-out: Inhibitory activity MSK2; for inhibition at 0.1 µM: 100 nM. The procedure:
(§1) . The kinome-wide selectivity was determined following the methods previously reported by Mohedas et al., ACS Chem Biol 2013, 8, 1291-1302 and Sanvitale et al., PLoS One 2013, 8, e62721.

Experiment [2] has as its target PKC-α (Homo sapiens, UniProt P17252). Put plainly: Kinome profiling PKC-α. The note with it: read-out: Inhibitory activity PKC-α; for inhibition at 0.1 µM: 100 nM. The procedure: as §1
For experiment [3], the target named is ALK (Homo sapiens, UniProt Q9UM73). Put plainly: Kinome profiling ALK. The note with it: read-out: Inhibitory activity ALK; for inhibition at 0.1 µM: 100 nM. The procedure: as §1
Chain of ALK (Q9UM73 19-1620): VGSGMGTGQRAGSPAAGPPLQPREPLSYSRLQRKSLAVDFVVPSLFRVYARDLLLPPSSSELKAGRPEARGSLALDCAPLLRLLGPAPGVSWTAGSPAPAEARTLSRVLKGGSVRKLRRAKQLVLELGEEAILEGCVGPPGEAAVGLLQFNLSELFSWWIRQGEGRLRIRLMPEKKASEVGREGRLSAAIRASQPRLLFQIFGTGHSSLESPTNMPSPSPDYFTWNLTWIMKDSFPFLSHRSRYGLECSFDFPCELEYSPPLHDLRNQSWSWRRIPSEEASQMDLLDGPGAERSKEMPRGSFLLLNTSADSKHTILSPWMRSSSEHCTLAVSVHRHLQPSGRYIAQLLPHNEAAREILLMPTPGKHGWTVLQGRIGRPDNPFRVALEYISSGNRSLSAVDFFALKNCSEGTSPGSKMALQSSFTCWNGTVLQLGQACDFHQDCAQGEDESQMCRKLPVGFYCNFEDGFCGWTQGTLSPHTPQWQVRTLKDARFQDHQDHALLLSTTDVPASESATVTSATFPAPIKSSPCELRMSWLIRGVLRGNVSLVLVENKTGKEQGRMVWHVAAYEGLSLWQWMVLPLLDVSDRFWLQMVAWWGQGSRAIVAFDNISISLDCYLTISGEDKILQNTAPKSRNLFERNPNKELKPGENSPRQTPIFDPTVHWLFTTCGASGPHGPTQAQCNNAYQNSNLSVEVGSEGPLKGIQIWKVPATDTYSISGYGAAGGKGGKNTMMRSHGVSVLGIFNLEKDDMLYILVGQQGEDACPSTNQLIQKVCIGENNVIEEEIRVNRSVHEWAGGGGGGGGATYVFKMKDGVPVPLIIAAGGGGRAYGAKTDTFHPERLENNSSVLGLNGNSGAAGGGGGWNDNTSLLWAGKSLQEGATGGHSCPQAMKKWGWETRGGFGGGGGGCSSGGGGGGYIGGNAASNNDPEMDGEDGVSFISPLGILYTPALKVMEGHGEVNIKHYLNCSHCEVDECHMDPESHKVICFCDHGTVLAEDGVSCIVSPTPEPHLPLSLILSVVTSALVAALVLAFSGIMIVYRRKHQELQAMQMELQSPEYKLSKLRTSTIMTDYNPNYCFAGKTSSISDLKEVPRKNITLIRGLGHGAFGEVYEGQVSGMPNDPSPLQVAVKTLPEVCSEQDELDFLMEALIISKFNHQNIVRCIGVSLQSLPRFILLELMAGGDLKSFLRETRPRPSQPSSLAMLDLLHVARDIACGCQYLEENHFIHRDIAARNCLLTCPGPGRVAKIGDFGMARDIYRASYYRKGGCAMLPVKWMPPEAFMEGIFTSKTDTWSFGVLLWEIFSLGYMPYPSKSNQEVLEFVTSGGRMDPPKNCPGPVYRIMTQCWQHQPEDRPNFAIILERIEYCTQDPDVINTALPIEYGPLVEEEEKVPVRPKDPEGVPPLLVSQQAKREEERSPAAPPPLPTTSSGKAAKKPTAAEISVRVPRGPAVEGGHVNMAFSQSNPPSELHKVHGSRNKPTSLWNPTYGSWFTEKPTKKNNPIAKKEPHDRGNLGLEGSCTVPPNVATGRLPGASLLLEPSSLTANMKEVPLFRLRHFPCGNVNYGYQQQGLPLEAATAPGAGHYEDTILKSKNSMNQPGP
Experiment [4] addresses FGFR2 (Homo sapiens, UniProt P21802). Put plainly: Kinome profiling FGFR2. The note with it: read-out: Inhibitory activity FGFR2; for inhibition at 0.1 µM: 100 nM. How it is done: as §1
The target in experiment [5] is RSK4 (Homo sapiens, UniProt Q9UK32). Put plainly: Kinome profiling RSK4. The note with it: read-out: Inhibitory activity RSK4; for inhibition at 0.1 µM: 100 nM. How it is done:
as §1

Experiment [6] addresses FES (Homo sapiens, UniProt P07332). Put plainly: Kinome profiling FES. To be noted: read-out: Inhibitory activity FES; for inhibition at 0.1 µM: 100 nM. How it is done: as §1
In experiment [7] the target is T1, EPHB2 (Homo sapiens, UniProt P29323).
T1 sequence (P29323 19-1055): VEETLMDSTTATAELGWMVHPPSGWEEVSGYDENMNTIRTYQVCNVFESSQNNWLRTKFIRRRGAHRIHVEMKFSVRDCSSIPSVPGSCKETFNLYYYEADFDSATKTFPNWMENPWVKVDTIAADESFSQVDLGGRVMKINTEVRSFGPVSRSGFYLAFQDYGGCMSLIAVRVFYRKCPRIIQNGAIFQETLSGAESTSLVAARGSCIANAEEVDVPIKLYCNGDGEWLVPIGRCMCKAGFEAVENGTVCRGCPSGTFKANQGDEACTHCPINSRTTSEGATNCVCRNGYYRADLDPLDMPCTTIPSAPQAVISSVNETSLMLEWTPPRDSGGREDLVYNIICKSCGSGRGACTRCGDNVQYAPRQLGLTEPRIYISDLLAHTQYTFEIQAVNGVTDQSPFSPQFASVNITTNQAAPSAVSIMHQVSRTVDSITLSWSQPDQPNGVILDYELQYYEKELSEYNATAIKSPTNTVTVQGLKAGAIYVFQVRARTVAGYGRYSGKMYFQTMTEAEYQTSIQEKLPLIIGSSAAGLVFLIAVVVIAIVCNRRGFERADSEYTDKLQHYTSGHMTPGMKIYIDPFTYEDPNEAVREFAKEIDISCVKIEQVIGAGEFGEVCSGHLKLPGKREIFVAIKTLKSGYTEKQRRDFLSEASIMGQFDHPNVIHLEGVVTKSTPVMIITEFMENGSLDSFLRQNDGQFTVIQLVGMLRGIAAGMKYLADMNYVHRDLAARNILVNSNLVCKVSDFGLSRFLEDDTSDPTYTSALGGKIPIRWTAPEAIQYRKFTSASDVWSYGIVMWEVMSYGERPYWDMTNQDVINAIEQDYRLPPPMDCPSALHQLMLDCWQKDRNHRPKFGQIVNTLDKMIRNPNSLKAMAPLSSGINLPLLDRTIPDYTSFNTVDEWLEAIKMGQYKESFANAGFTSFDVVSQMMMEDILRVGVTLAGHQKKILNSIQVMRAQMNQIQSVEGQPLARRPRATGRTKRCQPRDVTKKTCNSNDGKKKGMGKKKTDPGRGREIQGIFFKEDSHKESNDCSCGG
The experiment is described as follows: Kinome profiling EPHB2. The note with it: read-out: Inhibitory activity EPHB2; for inhibition at 0.1 µM: 100 nM. The procedure: as §1

The target of experiment [8] is T2, MUSK (Homo sapiens, UniProt O15146).
T2 sequence (O15146 24-869): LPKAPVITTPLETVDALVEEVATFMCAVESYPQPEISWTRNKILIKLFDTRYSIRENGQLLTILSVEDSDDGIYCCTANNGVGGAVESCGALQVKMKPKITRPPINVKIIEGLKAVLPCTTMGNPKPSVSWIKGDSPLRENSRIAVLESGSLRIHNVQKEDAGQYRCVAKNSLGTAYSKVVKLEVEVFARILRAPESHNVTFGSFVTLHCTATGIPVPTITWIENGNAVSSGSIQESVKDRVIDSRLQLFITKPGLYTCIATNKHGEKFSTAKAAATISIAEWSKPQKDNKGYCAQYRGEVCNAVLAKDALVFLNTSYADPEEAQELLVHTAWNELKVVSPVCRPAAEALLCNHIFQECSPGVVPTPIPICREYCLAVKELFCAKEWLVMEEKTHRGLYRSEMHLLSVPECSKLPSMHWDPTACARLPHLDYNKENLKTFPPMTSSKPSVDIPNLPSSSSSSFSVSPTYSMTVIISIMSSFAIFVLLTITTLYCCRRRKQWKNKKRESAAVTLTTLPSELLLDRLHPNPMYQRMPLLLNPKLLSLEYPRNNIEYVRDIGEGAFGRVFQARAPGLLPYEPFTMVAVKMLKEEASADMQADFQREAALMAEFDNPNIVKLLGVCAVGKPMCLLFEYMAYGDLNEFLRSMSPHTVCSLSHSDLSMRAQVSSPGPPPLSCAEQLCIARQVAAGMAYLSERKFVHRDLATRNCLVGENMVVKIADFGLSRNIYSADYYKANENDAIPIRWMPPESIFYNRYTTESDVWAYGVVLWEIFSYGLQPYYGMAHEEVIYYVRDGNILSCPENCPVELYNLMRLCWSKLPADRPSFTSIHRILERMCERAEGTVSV
The experiment is described as follows: Kinome profiling MUSK. To be noted: read-out: Inhibitory activity MUSK; for inhibition at 0.1 µM: 100 nM. How it is done:
as §1

Chain of RSK4 (Q9UK32 whole entry): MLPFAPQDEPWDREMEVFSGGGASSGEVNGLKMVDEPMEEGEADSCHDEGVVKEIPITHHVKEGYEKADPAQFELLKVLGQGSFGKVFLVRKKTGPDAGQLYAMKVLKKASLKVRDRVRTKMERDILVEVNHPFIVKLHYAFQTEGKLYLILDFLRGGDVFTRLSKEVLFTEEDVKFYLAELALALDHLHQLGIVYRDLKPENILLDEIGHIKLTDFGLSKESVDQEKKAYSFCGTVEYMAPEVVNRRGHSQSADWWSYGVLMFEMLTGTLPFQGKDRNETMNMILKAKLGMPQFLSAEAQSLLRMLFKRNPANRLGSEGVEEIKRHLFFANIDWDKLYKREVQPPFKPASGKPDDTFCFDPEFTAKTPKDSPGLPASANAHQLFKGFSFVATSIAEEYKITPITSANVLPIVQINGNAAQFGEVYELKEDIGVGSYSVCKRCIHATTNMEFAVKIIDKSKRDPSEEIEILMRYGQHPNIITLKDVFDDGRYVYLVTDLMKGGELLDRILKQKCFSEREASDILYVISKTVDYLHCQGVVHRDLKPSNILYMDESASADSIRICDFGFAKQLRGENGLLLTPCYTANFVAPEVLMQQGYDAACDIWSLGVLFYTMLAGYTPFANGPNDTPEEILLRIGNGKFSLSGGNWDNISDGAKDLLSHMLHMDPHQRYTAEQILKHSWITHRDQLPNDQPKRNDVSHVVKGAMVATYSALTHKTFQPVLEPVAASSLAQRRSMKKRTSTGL
Chain of FGFR2 (P21802 22-821): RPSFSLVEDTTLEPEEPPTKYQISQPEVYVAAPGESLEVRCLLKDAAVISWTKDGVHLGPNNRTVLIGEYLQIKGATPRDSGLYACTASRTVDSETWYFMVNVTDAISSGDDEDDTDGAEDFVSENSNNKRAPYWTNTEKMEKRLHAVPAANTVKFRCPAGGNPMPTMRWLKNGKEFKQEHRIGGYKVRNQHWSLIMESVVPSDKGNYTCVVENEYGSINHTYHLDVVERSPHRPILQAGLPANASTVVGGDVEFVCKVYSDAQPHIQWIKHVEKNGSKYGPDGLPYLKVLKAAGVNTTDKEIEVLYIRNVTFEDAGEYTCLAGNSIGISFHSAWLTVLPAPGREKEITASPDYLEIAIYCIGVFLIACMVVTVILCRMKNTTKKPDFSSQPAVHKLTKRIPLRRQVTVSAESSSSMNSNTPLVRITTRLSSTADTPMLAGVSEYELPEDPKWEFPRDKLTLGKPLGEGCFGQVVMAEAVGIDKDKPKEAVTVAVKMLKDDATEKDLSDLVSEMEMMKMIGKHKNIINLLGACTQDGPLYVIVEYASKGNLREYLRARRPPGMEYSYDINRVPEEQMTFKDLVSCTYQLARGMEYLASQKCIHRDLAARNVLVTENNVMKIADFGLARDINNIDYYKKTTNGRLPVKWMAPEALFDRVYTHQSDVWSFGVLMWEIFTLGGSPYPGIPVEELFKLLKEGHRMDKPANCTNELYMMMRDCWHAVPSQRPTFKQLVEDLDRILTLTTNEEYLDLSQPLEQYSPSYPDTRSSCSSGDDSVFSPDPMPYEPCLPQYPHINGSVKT
Chain of MSK2 (O75676 whole entry): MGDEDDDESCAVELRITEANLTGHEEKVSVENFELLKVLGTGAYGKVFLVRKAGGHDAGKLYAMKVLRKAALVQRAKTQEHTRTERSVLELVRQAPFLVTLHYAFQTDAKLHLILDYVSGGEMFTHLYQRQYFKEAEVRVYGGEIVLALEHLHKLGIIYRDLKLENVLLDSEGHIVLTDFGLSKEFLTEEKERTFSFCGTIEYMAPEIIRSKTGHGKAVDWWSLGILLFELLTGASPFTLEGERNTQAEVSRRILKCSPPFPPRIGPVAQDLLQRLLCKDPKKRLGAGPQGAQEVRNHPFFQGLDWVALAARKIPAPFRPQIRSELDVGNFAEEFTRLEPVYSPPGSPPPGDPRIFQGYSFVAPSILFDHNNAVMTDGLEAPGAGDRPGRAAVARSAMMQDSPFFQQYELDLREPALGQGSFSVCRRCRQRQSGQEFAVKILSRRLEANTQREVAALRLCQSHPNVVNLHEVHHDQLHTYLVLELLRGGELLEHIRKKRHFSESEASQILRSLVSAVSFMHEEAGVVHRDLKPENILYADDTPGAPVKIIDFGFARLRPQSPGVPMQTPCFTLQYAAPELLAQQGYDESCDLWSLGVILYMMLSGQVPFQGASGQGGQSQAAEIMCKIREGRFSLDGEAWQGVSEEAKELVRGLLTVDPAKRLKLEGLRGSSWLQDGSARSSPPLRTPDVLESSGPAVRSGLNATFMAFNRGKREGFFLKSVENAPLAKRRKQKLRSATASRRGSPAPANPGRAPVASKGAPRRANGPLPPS
Chain of FES (P07332 whole entry): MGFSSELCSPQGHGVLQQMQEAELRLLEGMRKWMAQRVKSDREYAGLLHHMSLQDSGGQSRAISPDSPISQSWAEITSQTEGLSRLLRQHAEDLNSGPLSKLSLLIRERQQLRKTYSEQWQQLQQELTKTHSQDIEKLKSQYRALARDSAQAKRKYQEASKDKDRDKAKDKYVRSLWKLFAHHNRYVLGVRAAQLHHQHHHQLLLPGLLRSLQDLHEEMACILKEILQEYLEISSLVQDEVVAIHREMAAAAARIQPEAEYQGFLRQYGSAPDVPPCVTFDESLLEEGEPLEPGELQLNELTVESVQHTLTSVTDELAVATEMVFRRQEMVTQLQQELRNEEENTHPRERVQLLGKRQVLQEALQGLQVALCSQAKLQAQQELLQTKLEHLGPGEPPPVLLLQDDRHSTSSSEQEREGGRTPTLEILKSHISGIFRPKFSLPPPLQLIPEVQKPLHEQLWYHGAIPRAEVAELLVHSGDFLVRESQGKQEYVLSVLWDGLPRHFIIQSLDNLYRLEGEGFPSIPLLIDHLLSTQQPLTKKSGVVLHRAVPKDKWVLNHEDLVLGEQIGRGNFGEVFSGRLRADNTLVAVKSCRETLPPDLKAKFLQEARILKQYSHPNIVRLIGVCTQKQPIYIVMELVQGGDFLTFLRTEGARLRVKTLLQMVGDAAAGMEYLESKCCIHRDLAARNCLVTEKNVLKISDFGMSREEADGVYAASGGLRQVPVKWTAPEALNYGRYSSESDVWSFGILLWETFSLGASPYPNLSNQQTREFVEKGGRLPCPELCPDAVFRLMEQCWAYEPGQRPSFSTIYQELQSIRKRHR

Consider `COc1cc(-c2cc(-c3ccc(N4CCNCC4)cc3)cnc2C)cc(OC)c1OC` [Compound 10, 1-(4-(6-methyl-5-(3,4,5-trimethoxyphenyl)pyridin-3-yl)phenyl)piperazine], for which the inhibition at 0.1 µM was 0% in experiment [1]; 2% in experiment [2]; 2% in experiment [3]; -1% in experiment [4]; 1% in experiment [5]; 7% in experiment [6]. The inhibition at 0.1 µM in experiment [7] was 5%; in experiment [8] it was 2%. In addition, the inhibition at 1 µM worked out at 1% in experiment [1]; 3% in experiment [2]; 7% in experiment [3]; 0% in experiment [4]; 1% in experiment [5]; 9% in experiment [6]. The inhibition at 1 µM in experiment [7] came to 15%; in experiment [8] it was 2%.

Consider `COc1cc(-c2cc(-c3ccc(N4CCNCC4)cc3)cnc2N)cc(OC)c1OC` [Compound 15, 5-(4-(piperazin-1-yl)phenyl)-3-(3,4,5-trimethoxyphenyl)pyridin-2-amine], for which the inhibition at 0.1 µM in experiment [1] turned out to be 1%; in experiment [2] it was 1%; in experiment [3] it was 6%; in experiment [4], 2%; in experiment [5], 1%; in experiment [6] it was 3%. Besides, the inhibition at 0.1 µM is 22% in experiment [7] and 1% in experiment [8]. The inhibition at 1 µM is -1% in experiment [1]; 6% in experiment [2]; 36% in experiment [3]; 5% in experiment [4]; 2% in experiment [5]; 4% in experiment [6]. The figures for the inhibition at 1 µM in experiment [7] and in experiment [8] were 70% and 5%, respectively.
